The values below come from ChEMBL document CHEMBL5291721, “A preclinical secondary pharmacology resource illuminates target-adverse drug reaction associations of marketed drugs” (Nat Commun, 2023).

For assay [1], the target named is T1, Alpha-1A adrenergic receptor (Homo sapiens, UniProt P35348).
T1 sequence (P35348 whole entry): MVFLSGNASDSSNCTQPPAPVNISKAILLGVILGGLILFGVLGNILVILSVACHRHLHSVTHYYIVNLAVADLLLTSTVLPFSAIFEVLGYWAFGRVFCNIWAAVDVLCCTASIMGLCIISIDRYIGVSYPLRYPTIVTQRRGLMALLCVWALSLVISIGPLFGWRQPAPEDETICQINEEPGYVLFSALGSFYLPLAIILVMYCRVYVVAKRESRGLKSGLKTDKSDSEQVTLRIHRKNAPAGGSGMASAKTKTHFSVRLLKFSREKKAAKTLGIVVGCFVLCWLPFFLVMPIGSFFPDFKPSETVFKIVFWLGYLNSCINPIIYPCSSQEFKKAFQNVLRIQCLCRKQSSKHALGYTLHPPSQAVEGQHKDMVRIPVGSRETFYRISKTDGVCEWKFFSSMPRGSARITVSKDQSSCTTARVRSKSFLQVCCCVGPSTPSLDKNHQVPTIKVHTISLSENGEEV
The assay is classed as functional, cell-based.

Assay [2] concerns the target T2, Muscarinic acetylcholine receptor M2 (Homo sapiens, UniProt P08172).
T2 sequence (P08172 whole entry): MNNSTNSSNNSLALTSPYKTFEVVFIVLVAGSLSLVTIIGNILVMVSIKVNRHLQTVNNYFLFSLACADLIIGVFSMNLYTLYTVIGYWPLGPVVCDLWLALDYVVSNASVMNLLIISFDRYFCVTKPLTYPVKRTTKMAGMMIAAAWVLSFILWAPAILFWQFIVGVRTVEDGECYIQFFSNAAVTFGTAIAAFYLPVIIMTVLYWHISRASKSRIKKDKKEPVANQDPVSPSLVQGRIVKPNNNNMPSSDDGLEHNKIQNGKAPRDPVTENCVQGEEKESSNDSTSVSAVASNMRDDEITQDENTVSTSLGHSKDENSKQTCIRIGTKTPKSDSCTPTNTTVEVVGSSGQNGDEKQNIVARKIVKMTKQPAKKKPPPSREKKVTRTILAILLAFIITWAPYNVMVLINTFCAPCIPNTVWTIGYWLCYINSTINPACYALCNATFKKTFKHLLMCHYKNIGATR
The assay is classed as functional, cell-based.

The target of assay [3] is 5-hydroxytryptamine receptor 2B (Homo sapiens, UniProt P41595). The assay is classed as functional, cell-based.
Chain of 5-hydroxytryptamine receptor 2B (P41595 whole entry): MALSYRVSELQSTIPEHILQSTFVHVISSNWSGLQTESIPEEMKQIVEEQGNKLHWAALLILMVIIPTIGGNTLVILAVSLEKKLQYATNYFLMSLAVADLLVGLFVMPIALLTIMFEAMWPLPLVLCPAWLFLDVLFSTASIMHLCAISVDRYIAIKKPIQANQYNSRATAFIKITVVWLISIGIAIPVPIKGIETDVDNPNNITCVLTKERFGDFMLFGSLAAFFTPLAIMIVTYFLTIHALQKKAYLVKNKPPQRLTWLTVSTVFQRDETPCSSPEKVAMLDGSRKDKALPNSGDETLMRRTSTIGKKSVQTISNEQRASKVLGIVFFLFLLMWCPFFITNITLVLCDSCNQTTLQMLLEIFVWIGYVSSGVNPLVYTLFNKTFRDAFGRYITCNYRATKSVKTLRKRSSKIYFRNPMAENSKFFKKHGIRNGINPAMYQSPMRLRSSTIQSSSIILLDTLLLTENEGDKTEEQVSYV
The next assay addresses Histamine H2 receptor (Homo sapiens, UniProt P25021). Format: functional, cell-based.
The target of assay [4] is T1, Alpha-1A adrenergic receptor. Format: functional, cell-based. The source holds these as a separate data set.
In the next assay the target is D(1A) dopamine receptor (Homo sapiens, UniProt P21728). Format: functional, cell-based.
Chain of D(1A) dopamine receptor (P21728 whole entry): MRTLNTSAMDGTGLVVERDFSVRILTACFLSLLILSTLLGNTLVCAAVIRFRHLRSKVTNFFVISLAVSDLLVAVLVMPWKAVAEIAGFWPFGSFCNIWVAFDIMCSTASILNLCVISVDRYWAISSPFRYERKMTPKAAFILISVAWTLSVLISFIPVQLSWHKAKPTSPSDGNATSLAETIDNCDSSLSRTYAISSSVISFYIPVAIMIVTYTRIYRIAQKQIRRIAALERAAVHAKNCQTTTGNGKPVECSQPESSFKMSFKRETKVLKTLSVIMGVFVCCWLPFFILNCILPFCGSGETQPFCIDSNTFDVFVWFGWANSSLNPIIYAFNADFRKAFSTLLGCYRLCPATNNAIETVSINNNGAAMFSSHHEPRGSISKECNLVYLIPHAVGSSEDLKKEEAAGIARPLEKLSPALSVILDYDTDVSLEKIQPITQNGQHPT
Assay [5] addresses T3, Amine oxidase [flavin-containing] A (Homo sapiens, UniProt P21397).
T3 sequence (P21397 whole entry): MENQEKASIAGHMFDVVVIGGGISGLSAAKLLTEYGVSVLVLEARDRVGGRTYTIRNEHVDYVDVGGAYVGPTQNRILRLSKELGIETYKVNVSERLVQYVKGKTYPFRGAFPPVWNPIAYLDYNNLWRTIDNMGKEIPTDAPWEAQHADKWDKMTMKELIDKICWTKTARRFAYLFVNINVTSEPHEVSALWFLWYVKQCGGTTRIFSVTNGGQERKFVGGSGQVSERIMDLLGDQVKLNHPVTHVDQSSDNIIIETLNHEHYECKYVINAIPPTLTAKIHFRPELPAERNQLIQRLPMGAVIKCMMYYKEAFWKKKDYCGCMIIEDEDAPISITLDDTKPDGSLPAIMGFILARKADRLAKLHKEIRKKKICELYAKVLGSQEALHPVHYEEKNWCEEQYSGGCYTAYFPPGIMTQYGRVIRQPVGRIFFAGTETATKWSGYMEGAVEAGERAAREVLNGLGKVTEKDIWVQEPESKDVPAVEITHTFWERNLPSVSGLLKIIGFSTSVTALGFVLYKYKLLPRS
The assay is classed as functional.

In assay [6] the target is T4, 5-hydroxytryptamine receptor 2C (Homo sapiens, UniProt P28335).
T4 sequence (P28335 whole entry): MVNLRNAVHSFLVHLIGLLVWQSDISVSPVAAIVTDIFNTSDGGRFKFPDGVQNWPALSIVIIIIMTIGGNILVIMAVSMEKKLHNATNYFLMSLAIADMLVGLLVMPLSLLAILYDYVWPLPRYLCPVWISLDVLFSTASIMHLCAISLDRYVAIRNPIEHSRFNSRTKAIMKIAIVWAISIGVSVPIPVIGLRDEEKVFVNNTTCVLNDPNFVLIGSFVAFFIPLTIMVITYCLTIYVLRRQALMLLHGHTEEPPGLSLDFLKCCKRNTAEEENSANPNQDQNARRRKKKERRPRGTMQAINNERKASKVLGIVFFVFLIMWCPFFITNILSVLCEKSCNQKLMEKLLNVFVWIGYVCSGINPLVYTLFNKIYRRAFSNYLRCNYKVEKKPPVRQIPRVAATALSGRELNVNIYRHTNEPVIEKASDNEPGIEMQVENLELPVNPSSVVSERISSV

In another assay the target is Adenosine receptor A2a (Homo sapiens, UniProt P29274).
Chain of Adenosine receptor A2a (P29274 whole entry): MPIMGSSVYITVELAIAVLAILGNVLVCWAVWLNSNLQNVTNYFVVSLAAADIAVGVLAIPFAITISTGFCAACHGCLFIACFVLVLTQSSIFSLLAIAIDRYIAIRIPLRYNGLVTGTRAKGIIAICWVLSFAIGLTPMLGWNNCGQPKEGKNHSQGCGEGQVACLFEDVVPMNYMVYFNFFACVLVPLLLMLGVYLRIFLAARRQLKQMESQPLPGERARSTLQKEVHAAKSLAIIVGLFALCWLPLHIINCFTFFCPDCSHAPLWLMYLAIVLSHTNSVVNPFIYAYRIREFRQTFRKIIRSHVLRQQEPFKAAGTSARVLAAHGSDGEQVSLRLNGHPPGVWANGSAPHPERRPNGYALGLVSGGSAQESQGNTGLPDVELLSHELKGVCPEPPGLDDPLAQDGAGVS
Assay [7] concerns the target Gamma-aminobutyric acid receptor subunit alpha-1 (Rattus norvegicus, UniProt P62813). The assay is classed as functional.
Note: assay procedure not described here.

Chain of Gamma-aminobutyric acid receptor subunit alpha-1 (P62813 whole entry): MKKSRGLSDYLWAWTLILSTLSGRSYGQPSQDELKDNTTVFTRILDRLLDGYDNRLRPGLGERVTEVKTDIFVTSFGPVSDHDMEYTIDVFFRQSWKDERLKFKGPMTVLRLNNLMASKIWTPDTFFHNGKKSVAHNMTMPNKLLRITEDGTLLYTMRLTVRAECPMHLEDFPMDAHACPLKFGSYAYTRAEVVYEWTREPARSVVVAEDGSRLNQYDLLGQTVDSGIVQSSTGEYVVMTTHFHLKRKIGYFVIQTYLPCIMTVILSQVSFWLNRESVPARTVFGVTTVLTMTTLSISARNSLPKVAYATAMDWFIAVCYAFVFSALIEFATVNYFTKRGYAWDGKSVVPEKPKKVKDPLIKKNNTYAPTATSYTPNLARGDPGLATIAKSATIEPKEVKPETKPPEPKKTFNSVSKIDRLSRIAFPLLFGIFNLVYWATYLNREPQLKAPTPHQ
Chain of Histamine H2 receptor (P25021 whole entry): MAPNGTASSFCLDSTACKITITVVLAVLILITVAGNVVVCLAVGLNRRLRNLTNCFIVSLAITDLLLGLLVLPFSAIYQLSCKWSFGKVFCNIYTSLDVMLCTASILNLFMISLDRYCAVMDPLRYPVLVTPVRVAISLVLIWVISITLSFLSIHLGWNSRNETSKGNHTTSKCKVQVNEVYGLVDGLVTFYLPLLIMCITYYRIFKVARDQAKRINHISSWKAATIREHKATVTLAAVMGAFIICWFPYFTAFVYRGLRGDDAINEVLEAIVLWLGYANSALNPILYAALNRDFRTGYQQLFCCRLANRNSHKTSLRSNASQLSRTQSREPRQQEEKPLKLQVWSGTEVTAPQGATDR

`O=C(O)c1ccccc1` [BENZOIC ACID] showed a concentration at half-maximal activity (AC50) in [1] greater than 30 µM.

For the molecule `Nc1c(CC(=O)O)cccc1C(=O)c1ccc(Br)cc1` [BROMFENAC], the AC50 in assay [1] was greater than 30 µM.

Turning to `Cc1nnc(SCC2=C(C(=O)O)N3C(=O)[C@@H](NC(=O)Cn4cnnn4)[C@H]3SC2)s1` [CEFAZOLIN], the AC50 in assay [2] is greater than 300 µM; in assay [3], greater than 300 µM; on Histamine H2 receptor, greater than 30 µM; in assay [4], greater than 300 µM; at D(1A) dopamine receptor, greater than 300 µM; in [5], greater than 300 µM. Moreover, the AC50 (in [6]; at Adenosine receptor A2a; in [7]) was greater than 300 µM throughout.

Take `CC=CC1=C(C(=O)O)N2C(=O)[C@@H](NC(=O)[C@H](N)c3ccc(O)cc3)[C@H]2SC1` [CEFPROZIL]: the AC50 (in assay [2]; in assay [3]; on Histamine H2 receptor; in assay [4]; at D(1A) dopamine receptor; in assay [5]) was greater than 30 µM throughout. Besides, the AC50 (in [6]; on Adenosine receptor A2a; in [7]) was greater than 30 µM throughout.

As to `CC(C)(O/N=C(\C(=O)N[C@@H]1C(=O)N2C(C(=O)[O-])=C(C[n+]3ccccc3)CS[C@H]12)c1csc(N)n1)C(=O)O` [CEFTAZIDIME], the AC50 was greater than 300 µM in assay [2]; greater than 300 µM in assay [3]; greater than 30 µM at Histamine H2 receptor; greater than 300 µM in assay [4]; greater than 300 µM at D(1A) dopamine receptor; greater than 300 µM in assay [5]. Moreover, the AC50 (in [6]; at Adenosine receptor A2a; in assay [7]) was greater than 300 µM throughout.

Take `CCCNC(=O)NS(=O)(=O)c1ccc(Cl)cc1` [CHLORPROPAMIDE]: the AC50 in assay [2] is greater than 10 µM; in assay [3] it was greater than 10 µM; at Histamine H2 receptor it was greater than 10 µM; in [4], greater than 30 µM; on D(1A) dopamine receptor, greater than 10 µM; in [5], greater than 10 µM. Moreover, the values for the AC50 (in assay [6]; at Adenosine receptor A2a; in [7]) were greater than 30 µM, greater than 30 µM and greater than 10 µM, respectively.

As for `CCC(=O)O[C@]1(C(=O)CCl)[C@@H](C)C[C@H]2[C@@H]3CCC4=CC(=O)C=C[C@]4(C)[C@@]3(F)[C@@H](O)C[C@@]21C` [CLOBETASOL PROPIONATE], the AC50 (in assay [2]; in assay [3]; at Histamine H2 receptor; in [4]; at D(1A) dopamine receptor; in [5]) was greater than 30 µM in each case. For the same molecule, the AC50 (in [6]; on Adenosine receptor A2a; in [7]) was greater than 30 µM each time.

With `CC(C(=O)O)c1cccc(Oc2ccccc2)c1` (configuration not stated) [FENOPROFEN], the AC50 in assay [1] was greater than 30 µM.

Molecule `CC1(C)O[C@@H]2C[C@H]3[C@@H]4C[C@H](F)C5=CC(=O)C=C[C@]5(C)[C@@]4(F)[C@@H](O)C[C@]3(C)[C@]2(C(=O)CO)O1` [FLUOCINOLONE ACETONIDE] showed an AC50 in assay [1] greater than 30 µM.

Turning to `O=C(O)P(=O)(O)O` [FOSCARNET], in assay [1], the AC50 is greater than 30 µM.

As for `CCCCCCCN(CC)CCCC(O)c1ccc(NS(C)(=O)=O)cc1` (configuration not stated) [IBUTILIDE], the AC50 (in assay [2]; in [3]; on Histamine H2 receptor; in assay [4]; on D(1A) dopamine receptor; in assay [5]) was greater than 30 µM each time. Further, the AC50 (in assay [6]; on Adenosine receptor A2a; in [7]) was greater than 30 µM in each case.

Regarding `CC[C@H](C)C(=O)O[C@H]1C[C@@H](C)C=C2C=C[C@H](C)[C@H](CC[C@@H]3C[C@@H](O)CC(=O)O3)[C@H]21` [LOVASTATIN], the AC50 in [2] is greater than 10 µM; in assay [3] it was 23 µM; on Histamine H2 receptor it was greater than 10 µM; in [4], greater than 30 µM; on D(1A) dopamine receptor, greater than 10 µM; in [5], greater than 10 µM. In addition, the AC50 in assay [6] is greater than 30 µM; at Adenosine receptor A2a it was greater than 30 µM; in assay [7], greater than 10 µM.

In the case of `COc1ccc2[nH]c([S+]([O-])Cc3ncc(C)c(OC)c3C)nc2c1` (configuration not stated) [OMEPRAZOLE], the AC50 in assay [1] is greater than 30 µM.

With `CC(CN1c2ccccc2Sc2ccccc21)N(C)C` (configuration not stated) [PROMETHAZINE], the AC50 was greater than 30 µM in [2]; 1.4 µM in assay [3]; greater than 10 µM at Histamine H2 receptor; greater than 30 µM in [4]; greater than 10 µM on D(1A) dopamine receptor; greater than 10 µM in assay [5]. Also, the AC50 was 0.5 µM in assay [6], greater than 30 µM on Adenosine receptor A2a and greater than 10 µM in assay [7].

As for `Cn1cc(C(=O)[C@@H]2CCc3nc[nH]c3C2)c2ccccc21` [RAMOSETRON], the AC50 in assay [2] was greater than 30 µM; in assay [3] it was 20 µM; on Histamine H2 receptor, greater than 30 µM; in assay [4] it was greater than 30 µM; on D(1A) dopamine receptor it was greater than 30 µM; in [5], greater than 30 µM. Also, the AC50 in [6] is greater than 30 µM; at Adenosine receptor A2a it was greater than 30 µM; in assay [7] it was 17 µM.

For `CN(CCOc1ccc(CC2SC(=O)NC2=O)cc1)c1ccccn1` (configuration not stated) [ROSIGLITAZONE], the AC50 is greater than 30 µM in assay [2]; 14 µM in assay [3]; greater than 30 µM on Histamine H2 receptor; greater than 30 µM in [4]; greater than 30 µM on D(1A) dopamine receptor; 8 µM in assay [5]. Also, the AC50 (in assay [6]; at Adenosine receptor A2a; in assay [7]) was greater than 30 µM in each case.

As to `Cc1ccc(C(=O)c2ccc(CC(=O)O)n2C)cc1` [TOLMETIN], the AC50 in [1] is greater than 30 µM.

On to `C[C@]12C=CC(=O)C=C1CC[C@H]1[C@@H]3C[C@@H](O)[C@](O)(C(=O)CO)[C@@]3(C)C[C@H](O)[C@@]12F` [TRIAMCINOLONE], for which the AC50 in [1] was greater than 30 µM.

`CC(C)C[C@H](NC(=O)[C@@H](O)[C@H](N)Cc1ccccc1)C(=O)O` [UBENIMEX]: the AC50 (in assay [2]; in assay [3]; at Histamine H2 receptor; in assay [4]; at D(1A) dopamine receptor; in [5]) was greater than 30 µM throughout. Further, the AC50 (in assay [6]; at Adenosine receptor A2a; in assay [7]) was greater than 30 µM in each case.

As for `CC(C)[C@H](N)C(=O)OCCOCn1cnc2c(=O)[nH]c(N)nc21` [VALACYCLOVIR], the AC50 was greater than 10 µM in assay [2]; greater than 10 µM in [3]; greater than 10 µM at Histamine H2 receptor; greater than 30 µM in [4]; greater than 10 µM on D(1A) dopamine receptor; greater than 10 µM in assay [5]. The AC50 in assay [6] is greater than 30 µM; at Adenosine receptor A2a, greater than 30 µM; in assay [7], greater than 10 µM.

Regarding `CCC1=C[C@@H]2CN(C1)Cc1c([nH]c3ccccc13)[C@@](C(=O)OC)(c1cc3c(cc1OC)N(C)[C@H]1[C@@](O)(C(=O)OC)[C@H](OC(C)=O)[C@]4(CC)C=CCN5CC[C@]31[C@@H]54)C2` [VINORELBINE], in assay [1], the AC50 was greater than 30 µM.

In general, AC50 refers to the concentration giving half of the maximal activity seen. Read a high AC50 as weaker potency.
